Assays:
[1] = Downregulation of PSA mRNA expression in human LNCaP cells measured after 12 hrs by RT-PCR assay; format: functional, cell-based
[2] = target: 11-beta-hydroxysteroid dehydrogenase 1 (Homo sapiens, UniProt P28845); assay: Inhibition of human 11beta-HSD1 expressed in HEK-293 cells incubated for 10 mins; format: cell-based, HEK293
[3] = Dissociation constant, pKa of compound; format: physicochemical

Sequence of 11-beta-hydroxysteroid dehydrogenase 1 (P28845 whole entry): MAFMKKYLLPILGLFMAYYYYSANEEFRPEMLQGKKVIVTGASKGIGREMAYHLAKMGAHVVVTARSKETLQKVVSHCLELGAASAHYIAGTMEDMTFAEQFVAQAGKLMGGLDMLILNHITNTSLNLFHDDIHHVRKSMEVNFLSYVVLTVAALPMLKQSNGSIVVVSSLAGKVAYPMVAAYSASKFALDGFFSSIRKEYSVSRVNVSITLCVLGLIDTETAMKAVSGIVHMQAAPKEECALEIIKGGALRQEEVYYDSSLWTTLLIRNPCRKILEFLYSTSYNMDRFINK

O=c1c(-c2ccc(O)cc2O)coc2cc(O[C@@H]3O[C@H](CO)[C@@H](O)[C@H](O)[C@H]3O)cc(O)c12
IC50 [1]: 18 µM

O=C1CC(c2ccccc2O)Oc2ccccc21 (stereo not drawn) [2'-HYDROXY-FLAVANONE]
IC50 [2]: 10 µM | pKa [3]: 6.67
